Assay results: US20060182722A1, “Methods and materials for isolating isogenic islet cells” (priority 2005, published 2006)
Values joined by “and” are separate entries in the source; they are usually repeats but may differ in a detail not shown here. Equal entries are not always repeated.

Assays:
[1] = Example 4: sirolimus whole blood trough concentration; format: in vivo, human
Method: Immunosuppression. […] On days 0 through +9 posttransplant, they received a daily 4-mg dose. […] The doses were based on those previously used to treat kidney graft rejection (Woddle et al., Transplantation 1999; 68:608-616). Premedication was with acetaminophen, diphenhydramine, and pentoxifylline. Sirolimus (Rapamune, Wyeth-Ayerst) was initiated orally at a dose of 0.2 mg/kg on day −2, followed by 0.1 mg/kg daily; the dose then was titrated and adjusted to achieve a target whole blood trough level of 5 to 10 ng/mL. Mean trough concentration prior to transplant on day 0 was 6.1±1.7 ng/mL and on day +2 was 6.7±1.9 ng/mL. Reduced-dose tacrolimus (Prograf, Fujisawa) was administered orally to all islet recipients beginning on […] posttransplant at 0.015 mg/kg 2 times per day; the dose was then adjusted to achieve a target whole blood trough level of 3 to 6 ng/mL (Shapiro et al., New Engl. J. Med. 2000; 343:230-238).

[2] = Example 3: immunosuppressant whole blood trough levels; format: in vivo, human; settings: for Drug Exposure: whole blood trough levels, individual recipients #1-#8
Method: Maintenance immunosuppression was initiated with sirolimus (0.2 mg/kg starting on day −2, followed by 0.1 mg/kg daily; target whole blood trough levels 5 to 15 ng/mL, as tolerated), and reduced-dose tacrolimus (0.015 mg/kg twice daily, starting on day +1; target whole blood trough levels 3 to 6 ng/mL). At 1 month posttransplant, tacrolimus was gradually replaced with mycophenolate mofetil (MMF; 750 to 1000 mg, twice daily); tacrolimus was either discontinued or dosed to a target trough level of <3 ng/mL. If target levels of sirolimus could not be achieved or maintained, however, tacrolimus (target level, 3 to 6 ng/mL) was continued.
The 5 recipients received daily MMF doses of 1.5 to 2.0 g. They either (a) achieved and maintained sirolimus trough levels >9 ng/mL, with tacrolimus trough levels of 0 to <3 ng/mL, or (b) in the absence of target sirolimus trough levels, tacrolimus trough levels of 3 to 6 ng/mL. The 3 recipients who resumed exogenous insulin therapy had received ≧1.5 g/day of MMF but had subtherapeutic sirolimus trough levels (<9 ng/mL) in the absence of measurable tacrolimus trough levels (<3 ng/mL). Please see Table 5 for immunosuppression.

[3] = tested on: serum cytokines (IL-10, TNF-α); assay: Serum cytokines before and after hOKT3γ1 (Ala-Ala); format: in vivo, human
[4] = Monitoring hOKT3γ1 (Ala-Ala): serum levels; format: in vivo, human; settings: table: individual subjects #1-#6, text: mean; for Peak hOKT3γ1 (Ala-Ala) level achieved: serum
From the text: (§1) Monitoring hOKT3γ1 (Ala-Ala). Flow cytometry was used to enumerate CD2^+, CD4^+, CD8^+, CD25^+, and CD69^+ T cells. […] Anti-idiotype antibodies were identified by ELISA, by the use of plate-bound OKT3, or by flow cytometry, in order to measure the blockade of binding of OKT3 fluorescein isothiocyanate to CD3 (Chatenoud, Transplant Proc. 1993; 25:68-73).

[5] = Anti-idiotype antibodies by ELISA; format: in vivo, human; settings: all recipients treated
From the text: as §1

[6] = tested on: autoreactive and alloreactive T cell responses; settings: clinical; cited from earlier work
CD3 = biological target: T1, CD3 (Homo sapiens, UniProt P07766); assay: Monitoring hOKT3γ1 (Ala-Ala): coating of the CD3 molecule on PBLs; format: in vivo; settings: table: individual subjects #1-#6, text: mean
T1 construct: endogenous in cells; host or cells: peripheral blood lymphocytes (PBLs) of the treated patients
From the text: as §1

T1D patients = assay: Example 4: safety assessments; parameters: species or system human; settings: in vivo
From the text: Safety assessments. Recipients underwent clinical, laboratory, and diagnostic safety assessments. Daily during their transplant hospitalization and at each of their 23 posttransplant study visits, the severity and duration of any adverse events were monitored and recorded. Laboratory tests included hematology, chemistry, liver transaminases, lipids, standard creatinine clearance, and urinary albumin excretion. Adverse events were graded based on the National Cancer Institute's Common Toxicity Criteria, Version 2.0.

[7] = tested on: type 1 diabetic recipients; assay: Example 3: safety assessments; format: in vivo, human; settings: of 8 recipients; resolved or improved with dose reduction
Method: Safety was assessed by monitoring the severity and duration of adverse events. Efficacy was assessed by studying the recipients' insulin requirements, C-peptide levels, oral and intravenous glucose tolerance results, intravenous arginine stimulation responses, and HbA1c levels. Safety Assessments. Recipients underwent clinical, laboratory, and diagnostic safety assessments daily during their transplant hospitalization and at each of their 19 posttransplant study visits. Portal pressure was monitored during the transplant procedure. On days +1 and +7, ultrasonographic examination was done of the right upper quadrant including Doppler examination of the portal venous system. The severity and duration of any adverse events were monitored and recorded. Laboratory tests assessed hematology, chemistry, liver transaminases, lipids, standard creatinine clearance, and urinary albumin excretion. Adverse events were graded per the National Cancer Institute's Common Toxicity Criteria, Version 2.0.

[8] = the 3 recipients who resumed exogenous insulin therapy

T1 sequence (P07766 23-207): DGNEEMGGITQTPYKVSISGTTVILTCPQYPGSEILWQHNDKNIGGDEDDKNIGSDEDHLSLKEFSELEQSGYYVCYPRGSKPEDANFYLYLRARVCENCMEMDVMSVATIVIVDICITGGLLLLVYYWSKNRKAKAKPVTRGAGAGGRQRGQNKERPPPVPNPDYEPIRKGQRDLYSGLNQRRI
T1 sequence (P09693 23-182 partner): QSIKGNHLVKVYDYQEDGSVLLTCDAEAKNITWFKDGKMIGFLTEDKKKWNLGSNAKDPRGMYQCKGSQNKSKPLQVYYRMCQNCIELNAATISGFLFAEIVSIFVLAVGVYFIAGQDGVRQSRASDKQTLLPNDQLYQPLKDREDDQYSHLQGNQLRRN
T1 sequence (P04234 22-171 partner): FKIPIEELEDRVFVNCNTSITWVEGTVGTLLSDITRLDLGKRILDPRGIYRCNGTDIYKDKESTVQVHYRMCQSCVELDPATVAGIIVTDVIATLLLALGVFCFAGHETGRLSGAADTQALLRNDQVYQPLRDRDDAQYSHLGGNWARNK
T1 sequence (P20963 22-164 partner): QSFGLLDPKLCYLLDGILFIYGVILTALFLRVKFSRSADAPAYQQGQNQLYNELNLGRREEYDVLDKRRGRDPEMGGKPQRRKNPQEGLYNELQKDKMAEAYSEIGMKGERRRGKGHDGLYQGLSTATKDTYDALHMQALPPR

CO[C@H]1C[C@@H]2CC[C@@H](C)[C@@](O)(O2)C(=O)C(=O)N2CCCC[C@H]2C(=O)O[C@H]([C@H](C)C[C@@H]2CC[C@@H](O)[C@H](OC)C2)CC(=O)[C@H](C)/C=C(\C)[C@@H](O)[C@@H](OC)C(=O)[C@H](C)C[C@H](C)/C=C/C=C/C=C/1C [Sirolimus, sirolimus]
Mean trough concentration ([1]; day +2): 6.7 ± 1.9 ng/mL | Mean trough concentration ([1]; prior to transplant on day 0): 6.1 ± 1.7 ng/mL | Trough levels ([2]; recipients with sustained insulin independence, case (a)): > 9 ng/mL | Trough levels [2, 8]: < 9 ng/mL | Drug Exposure [2]: 4-8 ng/ml and >9 ng/ml (3×) and 2-3 ng/ml and 7-9 ng/ml and 4-9 ng/ml and 6-8 ng/ml

hOKT3γ1 (Ala-Ala): humanized anti-CD3 antibody retaining the binding region of OKT3; human IgG1 Fc mutated to prevent binding to the Fc receptor
Mean peak serum TNF-α after administration ([3]; 29.9±31.7 pg/mL prior to administration): 267.6 ± 120.3 pg/mL | Serum IL-10 levels after administration compared with pre-dosing levels ([3]; all participants): increased in all participants | Peak hOKT3γ1 (Ala-Ala) level achieved [4]: 1196 ± 821 ng/mL | Peak hOKT3γ1 (Ala-Ala) level achieved ([4]; listed as hOKT3γ1 (Ala—Ala)): 872 ng/mL and 450 ng/mL and 1028 ng/mL and 736 ng/mL and 2761 ng/mL and 1330 ng/mL | Days to negative hOKT3γ1 (Ala-Ala) level after last dose [4]: 61 ± 32 days | Days to negative hOKT3γ1 (Ala-Ala) level after last dose ([4]; listed as hOKT3γ1 (Ala—Ala)): 91 days and 111 days and 47 days and 50 days and 33 days and 34 days | Anti-idiotype antibodies [5]: Absence of anti-idiotype antibodies | Kidney graft rejection [6]: reversed kidney graft rejection | Side effects compared with the parental OKT3 antibody [6]: markedly fewer side effects | Duration >80% CD3 coating (Total # of days) (CD3): 4.8 ± 2.6 days | Time to 80% CD3 coating (# of days) (CD3): 7.3 ± 2.9 days | Duration >80% CD3 coating (Total # of days) (CD3; listed as hOKT3γ1 (Ala—Ala)): 4 days (2×) and 3 days and 2 days and 8 days (2×) | Time to 80% CD3 coating (# of days) (CD3; listed as hOKT3γ1 (Ala—Ala)): 9.5 days and 8.5 days and 11.5 days and 4.5 days (2×) and 5.5 days

C=CC[C@@H]1/C=C(\C)C[C@H](C)C[C@H](OC)[C@H]2O[C@@](O)(C(=O)C(=O)N3CCCC[C@H]3C(=O)O[C@H](/C(C)=C/[C@@H]3CC[C@@H](O)[C@H](OC)C3)[C@H](C)[C@@H](O)CC1=O)[C@H](C)C[C@@H]2OC [Tacrolimus, tacrolimus]
Trough levels [2, 8]: < 3 ng/mL | Drug Exposure [2]: 0 ng/ml (2×) and 4-5 ng/ml and 4-6 ng/ml and <3 ng/ml and 3 ng/ml

C[C@@H]1[C@H](O)[C@@H](C)/C=C/C=C/CC/C=C/C=C/C=C/C=C/C(O[C@H]2O[C@H](C)[C@@H](O)[C@H](N)[C@@H]2O)CC2O[C@](O)(CC(O)C(O)CCC(O)CC(O)CC(O)CC(=O)O[C@H]1C)CC(O)C2C(=O)O (stereo partly shown) [nystatin]
Serious adverse event determined to be related to treatment (T1D patients): generalized rash

COc1c(C)c2c(c(O)c1C/C=C(\C)CCC(=O)OCCN1CCOCC1)C(=O)OC2 [MMF, mycophenolate mofetil]
Recipients with transient diarrhea after beginning MMF therapy [7]: 6
